# Assay results published in ChEMBL document CHEMBL1201862, “PubChem BioAssay data set” (2004).
#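 Growth conditions: 96-well plates. Treatment: test compound, 48 hours, 5 concentrations. Analysis: linear interpolation between bracketing concentrations; unreached endpoints set to highest concentration. Abbreviation: GI50, concentration required for 50% inhibition of growth.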 Active and inactive are the calls of the source. No stated cut-off is given here; in the data, active = GI50 up to about 1.1 µM and inactive = higher.
# Key:
# Assay in all cases: NCI-60 cell line screen, 48 h
# KM12 = tested on: KM12
# SK-MEL-28 = tested on: SK-MEL-28
# SF-539 = tested on: SF-539
# SF-295 = tested on: SF-295
# Hs-578T = tested on: Hs-578T
# OVCAR-8 = tested on: OVCAR-8
# CAKI-1 = tested on: CAKI-1
# SK-MEL-5 = tested on: SK-MEL-5
# MDA-MB-435 = tested on: MDA-MB-435
# SNB-19 = tested on: SNB-19
# HCC 2998 = tested on: HCC 2998
# TK-10 = tested on: TK-10
# M14 = tested on: M14
# SW-620 = tested on: SW-620
# SF-268 = tested on: SF-268
# 786-0 = tested on: 786-0
# SNB-75 = tested on: SNB-75
# HOP-62 = tested on: HOP-62
# MDA-N = tested on: MDA-N
# NCI-H460 = tested on: NCI-H460
SMILES,GI50 (KM12),GI50 (SK-MEL-28),GI50 (SF-539),GI50 (SF-295),GI50 (Hs-578T),GI50 (OVCAR-8),GI50 (CAKI-1),GI50 (SK-MEL-5),GI50 (MDA-MB-435),GI50 (SNB-19),GI50 (HCC 2998),GI50 (TK-10),GI50 (M14),GI50 (SW-620),GI50 (SF-268),GI50 (786-0),GI50 (SNB-75),GI50 (HOP-62),GI50 (MDA-N),GI50 (NCI-H460)
O=C1C(c2cnc3ccccc3n2)=C(O)c2ccccc21,7.08 µM (inactive),> 82.4 µM (inactive),> 100 µM (inactive),> 64 µM (inactive),> 57.7 µM (inactive),> 75.7 µM (inactive),> 24.5 µM (inactive),9.75 µM (inactive),4.19 µM (inactive),> 85.3 µM (inactive),71.8 µM (inactive),18.3 µM (inactive),> 100 µM (inactive),> 56.2 µM (inactive),> 93.8 µM (inactive),84.3 µM (inactive),22 µM (inactive),43.4 µM (inactive),> 61.4 µM (inactive),6.9 µM (inactive)
COc1ccc2nc3cc([N+](=O)[O-])ccc3c(NNc3ccc([N+](=O)[O-])cc3)c2c1,24.5 µM (inactive),68.2 µM (inactive),45.6 µM (inactive),22 µM (inactive),55.3 µM (inactive),> 58.1 µM (inactive),0.818 µM (active),19.8 µM (inactive),31.6 µM (inactive),24 µM (inactive),11.1 µM (inactive),2.46 µM (inactive),43.4 µM (inactive),9.02 µM (inactive),54.7 µM (inactive),36.9 µM (inactive),67.9 µM (inactive),57.3 µM (inactive),30.5 µM (inactive),3.16 µM (inactive)
CC1=NN(C(=O)c2ccncc2)C(=O)C1,> 100 µM (inactive),> 100 µM (inactive),> 100 µM (inactive),> 100 µM (inactive),> 100 µM (inactive),> 100 µM (inactive),> 100 µM (inactive),> 100 µM (inactive),> 100 µM (inactive),> 100 µM (inactive),> 100 µM (inactive),> 100 µM (inactive),> 100 µM (inactive),> 100 µM (inactive),> 100 µM (inactive),> 100 µM (inactive),> 100 µM (inactive),> 100 µM (inactive),> 100 µM (inactive),> 100 µM (inactive)
OC1(c2ccccc2)c2ccccc2N=C2NCCN21 (stereo not given),> 100 µM (inactive),89.3 µM (inactive),> 100 µM (inactive),57.5 µM (inactive),> 100 µM (inactive),> 100 µM (inactive),45.4 µM (inactive),37.6 µM (inactive),> 100 µM (inactive),> 100 µM (inactive),16.3 µM (inactive),37.4 µM (inactive),50.6 µM (inactive),84.7 µM (inactive),> 100 µM (inactive),72.9 µM (inactive),91.4 µM (inactive),> 100 µM (inactive),35.6 µM (inactive),56.4 µM (inactive)
CCOC(=O)C(C)(C)Oc1ccc(Cl)cc1 [CLOFIBRATE],324 µM (inactive),489 µM (inactive),366 µM (inactive),319 µM (inactive),208 µM (inactive),63.1 µM (inactive),> 1000 µM (inactive),147 µM (inactive),601 µM (inactive),> 1000 µM (inactive),505 µM (inactive),> 1000 µM (inactive),> 1000 µM (inactive),614 µM (inactive),650 µM (inactive),462 µM (inactive),229 µM (inactive),> 1000 µM (inactive),566 µM (inactive),632 µM (inactive)
Brc1ccccc2cc(-c3ccccc3)nc1-2,5.97 µM (inactive),3.94 µM (inactive),4.8 µM (inactive),15.6 µM (inactive),6.87 µM (inactive),2.27 µM (inactive),5.05 µM (inactive),6.55 µM (inactive),9.95 µM (inactive),13.6 µM (inactive),1.93 µM (inactive),7.57 µM (inactive),3 µM (inactive),2.07 µM (inactive),4.85 µM (inactive),1.92 µM (inactive),11.6 µM (inactive),9.93 µM (inactive),14.7 µM (inactive),11.9 µM (inactive)
O=C(O)CC1OCC=C2CN3CCC45C6=CC(=O)C(O)=C([N+](=O)[O-])C6=NC4C1C2CC35 (stereo not given),> 100 µM (inactive),> 100 µM (inactive),> 100 µM (inactive),> 100 µM (inactive),> 100 µM (inactive),> 100 µM (inactive),> 100 µM (inactive),> 100 µM (inactive),17.2 µM (inactive),> 100 µM (inactive),> 100 µM (inactive),> 100 µM (inactive),> 100 µM (inactive),47 µM (inactive),> 100 µM (inactive),> 100 µM (inactive),> 100 µM (inactive),> 100 µM (inactive),44.7 µM (inactive),> 100 µM (inactive)
CCN(CC)C1Oc2cc3c(cc2C(c2cccc(OC)c2OC)C1C)OCO3 (stereo not given),4.9 µM (inactive),14.9 µM (inactive),10.2 µM (inactive),3.16 µM (inactive),3.66 µM (inactive),3.56 µM (inactive),2.82 µM (inactive),6.84 µM (inactive),10.1 µM (inactive),8.07 µM (inactive),11.3 µM (inactive),5.77 µM (inactive),12.1 µM (inactive),4.24 µM (inactive),7.91 µM (inactive),4.16 µM (inactive),6.03 µM (inactive),10.8 µM (inactive),8.59 µM (inactive),3.63 µM (inactive)
CCN(CC)CCC(=O)c1ccc(Sc2ccc(F)cc2)cc1,15.7 µM (inactive),17.8 µM (inactive),17.7 µM (inactive),19.3 µM (inactive),15.8 µM (inactive),19.4 µM (inactive),16 µM (inactive),17.1 µM (inactive),14.9 µM (inactive),17.6 µM (inactive),32.6 µM (inactive),14.4 µM (inactive),20.5 µM (inactive),19.9 µM (inactive),15.8 µM (inactive),10.8 µM (inactive),17.5 µM (inactive),18.7 µM (inactive),25 µM (inactive),17.7 µM (inactive)
Clc1ccc(Nc2nnc(CNc3ccc(-c4nnc(Nc5ccc(Cl)cc5)o4)cc3)o2)cc1,8.36 µM (inactive),17.2 µM (inactive),18.6 µM (inactive),19.9 µM (inactive),17.8 µM (inactive),8.87 µM (inactive),17.9 µM (inactive),15.9 µM (inactive),12.9 µM (inactive),18.7 µM (inactive),5.14 µM (inactive),14 µM (inactive),17.1 µM (inactive),20.9 µM (inactive),21.2 µM (inactive),8 µM (inactive),24.8 µM (inactive),18.9 µM (inactive),14.3 µM (inactive),14.9 µM (inactive)
CC1(C)O[C@@H]2C[C@H]3[C@@H]4C[C@H](F)C5=CC(=O)C=C[C@]5(C)[C@@]4(F)[C@@H](O)C[C@]3(C)[C@]2(C(=O)CO)O1 [FLUOCINOLONE ACETONIDE],> 100 µM (inactive),> 100 µM (inactive),> 100 µM (inactive),> 100 µM (inactive),> 100 µM (inactive),> 100 µM (inactive),> 100 µM (inactive),> 100 µM (inactive),> 100 µM (inactive),> 100 µM (inactive),> 100 µM (inactive),> 100 µM (inactive),> 100 µM (inactive),> 100 µM (inactive),> 100 µM (inactive),> 100 µM (inactive),> 100 µM (inactive),> 100 µM (inactive),> 100 µM (inactive),> 100 µM (inactive)
CC(C)[Si](OC1=C(C(=O)Nc2ccccc2Cl)CCCCC1)(C(C)C)C(C)C,> 100 µM (inactive),> 100 µM (inactive),> 100 µM (inactive),> 100 µM (inactive),> 100 µM (inactive),> 100 µM (inactive),> 100 µM (inactive),> 100 µM (inactive),> 100 µM (inactive),> 100 µM (inactive),> 100 µM (inactive),> 100 µM (inactive),> 100 µM (inactive),> 100 µM (inactive),> 100 µM (inactive),> 100 µM (inactive),> 78.2 µM (inactive),> 100 µM (inactive),> 100 µM (inactive),> 100 µM (inactive)
O=C(CSc1ncccn1)N/N=C/c1ccccc1OCc1ccccc1,28.4 µM (inactive),36.6 µM (inactive),20.8 µM (inactive),21.6 µM (inactive),37.8 µM (inactive),28.7 µM (inactive),26.4 µM (inactive),14.8 µM (inactive),4.33 µM (inactive),45.3 µM (inactive),27.8 µM (inactive),23.4 µM (inactive),29.2 µM (inactive),29.6 µM (inactive),43 µM (inactive),34.6 µM (inactive),21.5 µM (inactive),28.2 µM (inactive),10.8 µM (inactive),30.1 µM (inactive)
COc1ccc(N/N=C2\C3=C(CCC(C)(C)O3)C(=O)c3ccccc32)cc1,13.4 µM (inactive),22.2 µM (inactive),24.4 µM (inactive),14.8 µM (inactive),19.1 µM (inactive),26.5 µM (inactive),20 µM (inactive),12.2 µM (inactive),17.1 µM (inactive),21.9 µM (inactive),12.1 µM (inactive),20.5 µM (inactive),20.7 µM (inactive),34 µM (inactive),15.3 µM (inactive),18.3 µM (inactive),19 µM (inactive),20.9 µM (inactive),15.6 µM (inactive),14.2 µM (inactive)
